This is an account of results in patent publication US7491722B2, “Pyridazin-3(2H)-one derivatives” (Laboratorios Almirall S.A., priority 2002, dated 2009).

Usually melting point stands for the temperature of the solid-liquid transition. The term IC50 denotes the midpoint of a concentration-inhibition curve. Lower therefore signals higher potency.

System in one series: not given
Assay: not given
Consider `CCn1nc(-c2cccc(C)c2)c(C(C)=O)c(Nc2cccc3ncccc23)c1=O` [Example 195, 5-Acetyl-2-ethyl-6-(3-methylphenyl)-4-(quinolin-5-ylamino)pyridazin-3(2H)-one], for which the melting point lay in the range of 245 to 246.1 °C.

A further series concerns PDE4. Kind of series: PDE4 Assay Procedure ([3H]-cAMP SPA). In kind it is biochemical. Here is the method: Compounds to be tested were resuspended in DMSO at a stock concentration of 1 mM. The compounds were tested at different concentrations varying from 10 μM to 10 pM to calculate an IC50. These dilutions were done in 96-well plates. In some cases, plates containing diluted compounds were frozen before being assayed. In these cases, the plates were thawed at room temperature and stirred for 15 minutes.
Ten microliters of the diluted compounds were poured into a “low binding” assay plate. Eighty microliters of reaction mixture containing 50 mM Tris pH 7.5, 8.3 mM MgCl2, 1.7 mM EGTA, and 15 nM [3H]-cAMP were added to each well. The reaction was initiated by adding ten microliters of a solution containing PDE4. The plate was then incubated under stirring for 1 hour at room temperature. After incubation the reaction was stopped with 50 microlitres of SPA beads, and the reaction was allowed to incubate for another 20 minutes at room temperature before measuring radioactivity using standard instrumentation.
The reaction mixture was prepared by adding 90 ml of H2O to 10 ml of 10× assay buffer (500 mM Tris pH 7.5, 8.3 mM MgCl2, 17 mM EGTA), and 40 microlitres 1 μCi/μL [3H]-cAMP. SPA beads solution was prepared by adding 500 mg to 28 ml H2O for a final concentration of 20 mg/ml beads and 18 mM zinc sulphate.
For the molecule `CCn1nc(-c2cccnc2)c(C(C)=O)c(Nc2cccc(F)c2)c1=O` [Example 1, 5-Acetyl-2-ethyl-4-[(3-fluorophenyl)amino]-6-pyridin-3-ylpyridazin-3(2H)-one], the half-inhibitory concentration (IC50) stood at 2.3 nM. In other words, the single-digit nanomolar range.

`CCn1nc(-c2ccncc2)c(C(C)=O)c(Nc2ccc(C(=O)O)cc2)c1=O` [Example 41, 4-[(5-acetyl-2-ethyl-3-oxo-6-pyridin-4-yl-2,3-dihydropyridazin-4-yl)amino]benzoic acid]: 16 nM corresponded to half-maximal inhibition (IC50).

Molecule `CCn1nc(-c2ccncc2)c(C(C)=O)c(Nc2cccc(Cl)c2)c1=O` [Example 31, 5-Acetyl-4-[(3-chlorophenyl)amino]-2-ethyl-6-pyridin-4-ylpyridazin-3(2H)-one] had an IC50 of 4.5 nM.

The molecule `CCn1nc(-c2ccccc2)c(C(C)=O)c(Nc2cccc3ncccc23)c1=O` [Example 82, 5-Acetyl-2-ethyl-6-phenyl-4-(quinolin-5-ylamino)pyridazin-3(2H)-one] returned an IC50 of 0.3 nM. This IC50 lies about 15-fold lower than the previous one.

Molecule `CC(=O)c1c(-c2cccc(F)c2)nn(CC2CC2)c(=O)c1Nc1cccnc1` [Example 92, 5-Acetyl-2-cyclopropylmethyl-6-(3-fluorophenyl)-4-(pyridin-3-ylamino)-pyridazin-3(2H)-one] yielded an IC50 of 11 nM.

`CCn1nc(-c2ccccc2)c(C(C)=O)c(Nc2cccc3cnccc23)c1=O` [Example 84, 5-Acetyl-2-ethyl-4-(isoquinolin-5-ylamino)-6-phenylpyridazin-3(2H)-one] returned an IC50 of 2.6 nM.

`CCn1nc(-c2ccccc2)c(C(C)=O)c(Nc2cccc3cccnc23)c1=O` [Example 67, 5-Acetyl-2-ethyl-6-phenyl(quinolin-8-ylamino)pyridazin-3(2H)-one] registered an IC50 of 10 nM.

Regarding `CCn1nc(-c2ccccc2)c(C(C)=O)c(Nc2cccc3[nH]ccc23)c1=O` [Example 69, 5-Acetyl-2-ethyl-4-(1H-indol-4-ylamino)-6-phenylpyridazin-3(2H)-one], the IC50 was determined as 2 nM. This IC50 lies about 5-fold lower than the previous one.

For the molecule `CCn1nc(-c2ccc(F)cc2)c(C(C)=O)c(Nc2cccnc2)c1=O` [Example 93, 5-Acetyl-6-(4-fluorophenyl)-2-ethyl 4-(pyridin-3-ylamino)-pyridazin-3(2H)-one], it took 8.3 nM to reach half-maximal inhibition (IC50).

`CCn1nc(-c2cccnc2)c(C(C)=O)c(Nc2cccc3ccccc23)c1=O` [Example 4, 5-Acetyl-2-ethyl-4-(1-naphthylamino)-6-pyridin-3-ylpyridazin-3(2H)-one] yielded an IC50 of 6.8 nM.

With `CCn1nc(-c2cccs2)c(C(C)=O)c(Nc2cccc(Cl)c2)c1=O` [Example 52, 5-Acetyl-4-[(3-chlorophenyl)amino]-2-ethyl-6-thien-2-ylpyridazin-3(2H)-one], the IC50 came to 5.2 nM. This IC50 and that of the molecule before are within 1.5-fold of each other.

Molecule `CC(=O)c1c(-c2cccc(F)c2)nn(C(C)C)c(=O)c1Nc1cccnc1` [Example 91] had an IC50 of 9.4 nM.

With `CCn1nc(-c2ccncc2)c(C(C)=O)c(Nc2cccc3ccccc23)c1=O` [Example 32, 5-Acetyl-2-ethyl-4-(1-naphthylamino)-6-pyridin-4-ylpyridazin-3(2H)-one], the IC50 was 0.59 nM.

Take `CCn1nc(-c2ccncc2)c(C(C)=O)c(Nc2ccccc2C)c1=O` [Example 33, 5-Acetyl-2-ethyl-4-[(2-methylphenyl)amino]-6-pyridin-4-ylpyridazin-3(2H)-one]: the IC50 was 0.11 nM.

`CCn1nc(-c2ccccc2)c(C(C)=O)c(Nc2cccnc2)c1=O` [Example 63, 5-Acetyl-2-ethyl-6-phenyl-4-(pyridin-3-ylamino)pyridazin-3(2H)-one]: the IC50 was 24 nM. This IC50 lies about 220-fold higher than the previous one.
